Columns and labels:
mCherry [1] = experiment: Inducible-repressor circuit with RZ and synTF-MNAS, % mCherry (FIG. 11); format: cell-based; details: 4-OHT d0-d3 at 0.1, 0.2, 0.5 and 1 μM, duplicates
Text: FIG. 10 is a schematic of an exemplary synTF comprising VP64, and an exemplary inducible anti-sense repressor construct comprising, in the second transcription unit, a ribosome entry site (RZ), and a nucleic acid sequence that is the antisense to a portion of the nucleic acid encoding the GOI, which are both 5′ to the second promoter and the DBD. In some embodiments, the antisense to the portion of the GOI, herein referred to as “synTF-mediated nucleic acid sequence” or “synTF-MNAS” can be replaced by any RNAi molecule known to persons of ordinary skill in the art.

mCherry GOI = experiment: Inducible-repressor circuit with spacer and second promoter, % mCherry and FACS (FIG. 8, FIG. 9); format: cell-based
Text: FIG. 7 is a schematic of an exemplary inducible-repressor circuit (top panel), and a second exemplary inducible-repressor circuit (bottom panel), where the second inducible-repressor circuit is modified to comprise, in the second transcription unit, a spacer and a second promoter, and the DBD, each if which are in the antisense direction to the first transcription unit comprising the first promoter and GOI.

[2] = tested on: mCherry fluorescent reporter; experiment: Inducible anti-sense repressor switch: mCherry reporter repression and recovery in 293T cells stably expressing ZF-VP64-ERT2 synTF and the reporter construct; format: cell-based, human
Protocol: (§1) To evaluate the kinetics of this repressor switch, 293T cells where generated to stably express both the inducible anti-sense repressor and fluorescent reporter. In order to determine whether the repressor switch is able to transiently silence GOIs, the inventors treated reporter cells with. 1 uM 4-OHT and measured mCherry reporter fluorescence at 1 day, 2 days, and 3 days. In order to determine whether the repressor switch transiently represses GOIs, the inventors removed 4-OHT and measured fluorescence expression after 2 days, 4 days, 6 days, and 8 days (FIG. 5A-5B).
The expression of mCherry was measured at days 0, d1, d2, d3, d4, d6, d7, d9 and d11.
as §1, with “To assess transcriptional repression of the GOI, inducible antisense repressor construct comprising (i) a first transcriptional unit comprising a constitutively active promoter operatively linked to a mCherry fluorescent reporter GOI was used, and a (ii) a second transcriptional unit comprising an inverted DNA binding motif (DBM) comprising a zinc finger binding array operatively linked to a minimal promoter (FIG. 4A). To” for “To”, “with 0.1” for “with. 1”
To assess the inducible transcriptional repressor system, the inventors initially used two vectors. One vector comprises a synthetic inducible repressor construct as defined herein, which compromises a gene of interest (GOI) operatively linked to a constitutive promoter, and downstream, a second transcription unit comprising, in brief, a second promoter, and a binding site for the synTF (e.g., DBM or the DNA binding domain). The second vector encoding the inducible synTF (e.g., small molecule induced synTF) comprising a transcriptional activation domain, DNA-binding domain (DBD) and a nuclear localization domain (or cytosolic domain). First, to construct the nucleic acid encoding the small-molecule inducer synTF, one of our artificial zinc finger proteins was attached (see U.S. Pat. No. 10,138,493 B2 and Patent Application No. US 2020/0377564 A1, incorporated herein by reference) to both a VP64 transcriptional domain and ERT2 domain (FIG. 2A). To assess the inducer-dependent, synTF mediated transcriptional repression of the GOI, an engineered construct comprising a constitutively expressed mCherry fluorescent reporter, operatively connected to a constitutive promoter was created, which had, downstream a minimal promoter and an inverted zinc finger binding array (ZF-BD) (also referred to as a DNA binding motif (DBM) (FIG. 4A).
To evaluate the kinetics of this inducible antisense repressor switch, 293T cells were transduced with the vector encoding the synTF and the inducible transcriptional repressor construct to generate a reporter cell line that stably expresses both the inducible synTF and fluorescent reporter. To determine whether the repressor switch was able to transiently silence the GOI mRNA, the cells were treated with three concentrations of 4-OHT and mCherry reporter was measured fluorescence at 1 day, 2 days, and 3 days (FIG. 5A-5B). Next, to determine whether the inducible synTF repressor switch could transiently represses the expression of the GOI, 4-OHT was removed and measured fluorescence expression after 2 days, 4 days, 6 days, and 8 days (FIG. 5B).

mCherry [3] = experiment: Downstream inducible repression with synTF-RD (zinc finger, KRAB, ERT2) and its repressor construct, % mCherry (FIG. 6B); format: cell-based; details: 4-OHT at 0.1, 0.2, 0.5 and 1 μM for d0-d3, 8 days after removal
Text: FIG. 6A-6B show an alternative embodiment of a synTF and construct system for downstream inducible-repression.

CC/C(=C(\c1ccc(O)cc1)c1ccc(OCCN(C)C)cc1)c1ccccc1 [4-OHT, 4-hydroxytamoxifen]
repression of mCherry compared with the construct in the top panel of FIG. 7 (mCherry [1]): greater repression
repression of mCherry compared with the construct in the top panel of FIG. 7 (mCherry GOI; 4-OHT d0-d3 at 0.1 μM, 0.2 M (so in the source), 0.5 μM and 1 μM, duplicates, spacer and second promoter circuit): greater repression
mCherry expression, FACS flow plot (mCherry GOI; 2 days after addition of 1 uM 4-OHT, decreased from 87.9% before): 69.8%
reporter fluorescence expression after 3 days of 4-OHT ([2]; 0.1 uM 4-OHT, 293T reporter cells, after 3 days): strongly repressed
mCherry expression in the presence of 4-OHT, of normal levels ([2]; 4-OHT at 0.1 μM, 0.2 μM and 0.5 μM for d0-d3, 293 cells with synTF and construct of FIG. 2A-2B): about 20%
mCherry levels 8 days after the removal of 4-OHT ([2]; 4-OHT at 0.1 μM, 8 days after removal): back to normal levels
reporter fluorescence expression after 4-OHT removal ([2]; 8 days post 4-OHT removal): restored
mCherry expression restored, of baseline levels ([2]; 8 days post 4-OHT removal, 0.1 M 4-OHT treatment (so in the source)): 100%
repression of mCherry expression ([2]; all three 4-OHT concentrations, after 3 days, 293T reporter cells): approx. 80%
mCherry expression after the removal of 4-OHT ([2]; d4-d11, after 3 days of 4-OHT): significantly increased
repression of mCherry compared with the synTF and construct of FIG. 5B (mCherry [3]): milder repression

Source: patent US20240110185A1, “INDUCIBLE ANTI-SENSE REPRESSOR SWITCHES AND USES THEREOF” (Trustees of Boston University, priority 2022, published 2024)
